From patent US9303165B2, “Bacteriochlorin imides” (North Carolina State University, priority 2011, dated 2016)
Where two headings read alike, the source gives them in different places.

Assays:
[1] = Static absorption spectra (Qy(0,0) band); format: physicochemical; conditions: for λQy abs: Qy(0,0) absorption band, in toluene at room temperature; for λQy/IB: ratio of the peak intensities of the Qy(0,0) and B bands, toluene, room temperature
Protocol: (§1) Static absorption and fluorescence measurements were performed as described previously.^69,70 Argon-purged solutions of the samples in toluene with an absorbance of ≦0.10 at the excitation wavelength were used for the fluorescence spectral, quantum yield, and lifetime measurements. Fluorescence lifetimes were obtained using a phase modulation technique and Soret-band excitation^70 or via decay measurements using Soret-region excitation pulses obtained from a nitrogen-pumped dye laser and time-correlated-single-photon-counting detection. Emission measurements employed 2-4 nm excitation- and detection-monochromator bandwidths and 0.2 nm data intervals. Emission spectra were corrected for detection-system spectral response.

[2] = Static fluorescence spectra and fluorescence quantum yield; format: physicochemical; conditions: for λQy em: Qy(0,0) emission band, in toluene at room temperature; for Φf fluorescence quantum yield: toluene, room temperature, argon-purged, error ± 7%
Protocol: as §1

[3] = Singlet excited-state lifetime by fluorescence techniques; format: physicochemical; conditions: toluene, room temperature; error ± 7%
Protocol: as §1

[4] = cited from earlier work
[5] = cited from earlier work; remark: listed apart in the source
[6] = organic solvents; cited from earlier work

Compound | λQy abs [1] [nm] | λQy/IB [1] | λQy em [2] [nm] | Φf fluorescence quantum yield [2] | τs lifetime of the lowest singlet excited state [3] [ns] | also measured
C=Cc1c(C)c2cc3nc(c4c5[n-]c(cc6nc(cc1[n-]2)C(C)=C6CC)c(C)c5C(=O)[C@@H]4C(=O)OC)[C@@H](CCC(=O)OC/C=C(\C)CCC[C@H](C)CCC[C@H](C)CCCC(C)C)[C@@H]3C.[Mg+2] [chlorophyll a] | – | – | – | – | – | Φf of quantum yield standard ([2]; in toluene): same value as in benzene; Φf of quantum yield standard ([4]; in benzene): 0.325
CC(=O)O[C@@H]1C[C@@H](O)[C@@H](C)OC1[C@]1(C)C(=O)c2cc3cc(C)c(cc4nc(cc5[nH]c(cc1n2)cc5C)C(=O)[C@@]4(C)C1O[C@H](C)[C@H](O)C[C@H]1OC(C)=O)[nH]3 (some centres unmarked) [tolyporphin A] | – | – | – | – | – | absorption wavelength [5]: 678 nm
C1=Cc2nc1c(-c1ccccc1)c1ccc([nH]1)c(-c1ccccc1)c1nc(c(-c3ccccc3)c3ccc([nH]3)c2-c2ccccc2)C=C1 [free base tetraphenylporphyrin] | – | – | – | – | – | Φf of quantum yield standard ([4]; free base): 0.090
CC[C@H]1c2cc3[nH]c4c(c5nc(cc6[nH]c(cc(n2)[C@@H]1C)c(C(C)=O)c6C)[C@@H](C)[C@@H]5CCC(=O)OC)CC(=O)c4c3C [methyl bacteriopyropheophorbide a] | – | – | – | – | – | Qy(0,0) absorption ([5]; in CH2Cl2): 754 nm
CCOC(=O)c1c(CC)c2cc3nc(c(OC)c4[nH]c(cc5nc(cc1[nH]2)CC5)c(CC)c4C(=O)OCC)CC3 [MeOBC-EtEs, 2,12-diethyl-3,13-diethoxycarbonyl-5-methoxybacteriochlorin] | 739 | 1.1 | 749 | 0.17 | 4.3 | Stokes shift (fluorescence Qy(0,0) to longer wavelength than absorption Qy(0,0)) ([2]; in toluene): ~15 nm
CC1(C)Cc2cc3ccc(cc4nc(cc5ccc(cc1n2)[nH]5)CC4(C)C)[nH]3 [HBC] | 713 | 0.85 | 716 | 0.17 | 4.0 | –
CCOC(=O)c1c(CC)c2cc3nc(c4c5[nH]c(cc6nc(c(OC)c1[nH]2)CC6(C)C)c(CC)c5C(=O)N(Cc1ccccc1)C4=O)CC3(C)C [MeOBC-I, 15^2-N-Benzyl-3-ethoxycarbonyl-2,12-diethyl-5-methoxy-8,8,18,18-tetramethyl-bacteriochlorin-13,15-dicarboximide] | 793 | 1.0 | 798 | 0.052 | 2.2 | Stokes shift (fluorescence Qy(0,0) to longer wavelength than absorption Qy(0,0)) ([2]; in toluene): ~5 nm
CC[C@H]1c2cc3[nH]c4c(c3C)C(=O)[C@H](C(=O)OC)c4c3nc(cc4[nH]c(cc(n2)[C@@H]1C)c(C(C)=O)c4C)[C@@H](C)[C@@H]3CCC(=O)OC/C=C(\C)CCC[C@H](C)CCC[C@H](C)CCCC(C)C [BPh-a, Bacteriopheophytin a] | 758 | 0.69 | 768 | 0.10 | 2.7 | Qy(0,0) absorption ([5]; hydrocarbon / organic solvents): 750-760 nm; average singlet excited-state lifetime [6]: 2.0-2.7 ns

Second part, led by results:

λQy abs [1] [nm] | λQy/IB [1] | λQy em [2] [nm] | Φf fluorescence quantum yield [2] | τs lifetime of the lowest singlet excited state [3] [ns] | Compound | also measured
740 | 0.96 | 747 | 0.14 | 3.8 | COc1c2nc(cc3cc(C(C)=O)c(cc4nc(cc5cc(C(C)=O)c1[nH]5)C(C)(C)C4)[nH]3)C(C)(C)C2 [MeOBC-A, 3,13-Diacetyl-5-methoxy-8,8,18,18-tetramethylbacteriochlorin] | –
709 | 0.87 | 711 | 0.25 | 5.0 | COc1c2nc(cc3ccc(cc4nc(cc5ccc1[nH]5)C(C)(C)C4)[nH]3)C(C)(C)C2 [MeOBC] | –
743 | 0.95 | 749 | 0.13 | 3.4 | COc1c2nc(cc3[nH]c(cc4nc(cc5[nH]c1c(C(C)=O)c5C)C(C)(C)C4)c(C(C)=O)c3C)C(C)(C)C2 [MeOBC-MeA, 3,13-Diacetyl-5-methoxy-2,8,8,12,18,18-hexamethylbacteriochlorin] | –
766 | – | – | – | – | CC(=O)c1c(C)c2cc3nc(cc4[nH]c(cc5nc(cc1[nH]2)CC5(C)C)c(C)c4C(C)=O)CC3(C)C [HBC-MeA, 3,13-Diacetyl-2,8,8,12,18,18-hexamethylbacteriochlorin] | –
768 | 1.2 | 771 | 0.11 | 2.9 | CC(=O)c1cc2cc3nc(cc4[nH]c(cc5nc(cc1[nH]2)CC5(C)C)cc4C(C)=O)CC3(C)C [HBC-A] | –
818 | 1.3 | 823 | 0.036 | 1.9 | CCOC(=O)c1c(CC)c2cc3nc(c4c5[nH]c(cc6nc(cc1[nH]2)CC6(C)C)c(CC)c5C(=O)N(Cc1ccccc1)C4=O)CC3(C)C [HBC-I, 15^2-N-Benzyl-3-ethoxycarbonyl-2,12-diethyl-8,8,18,18-tetramethylbacteriochlorin-13,15-dicarboximide] | Stokes shift (fluorescence Qy(0,0) to longer wavelength than absorption Qy(0,0)) ([2]; in toluene): ~5 nm
733 | 0.93 | 739 | 0.19 | 4.6 | COc1c2nc(cc3[nH]c4c(c5nc(cc6[nH]c1c(C(C)=O)c6C)C(C)(C)C5)CC(=O)c4c3C)C(C)(C)C2 [MeOBOP, 3-Acetyl-5-methoxy-2,8,8,12,18,18-hexamethylbacterio-13^1-oxophorbine] | Stokes shift (fluorescence Qy(0,0) to longer wavelength than absorption Qy(0,0)) ([2]; in toluene): ~5 nm
